Tested on: non-bacterial prostatitis
Experiment: Therapeutic effects on non-bacterial prostatitis (Xiaozhiling injection into prostate)
Type: in vivo, SD rats
Conditions: for Average of Body Weight / Average Volume of Prostate / Average Weight of Prostate / Inhibition of Organ-coefficient / Organ Coefficient: 5 weeks
Procedure: Fifty-five male SD rats were randomly divided into 6 groups, 9 each, except the negative control group for which 10 animals were used. All animals from group 1 to 6 were anesthetized by injection of ketamine under sterile conditions and incised around 1.5 cm with a sterilized surgery scalpel at middle of abdomen. Animals in Group 1 were injected penicillin to prevent infection, and given distill water, 10 ml/kg, once a day, 5 times a week for 5 weeks. Groups from 2 to 6 injected 25% Xiaozhiling into left and right lobes of prostate, 0.1 ml for each lobe and sew the muscle and skin with #1 silk thread. The animals were then given penicillin to prevent infectious. Group 2 was served as negative control group in which animals were treated with distill water by gavage 24 hrs after the Xiaozhiling injection, once a day, 5 times a week for 5 weeks. Group 3 was served as positive control group in which animals were treated with GENURIN by gavage 24 hrs after the Xiaozhiling injection at dose of 60 mg/kg, once a day, 5 times a week (escaping weekend) for 5 weeks. […] On the last dosing day, urine samples from different groups that covered periods of 1, 2 and 3 hrs were collected.
Twenty-four hrs after the last dose, the animals were euthanized and weighed. Volume and weight of prostate were measured. The averages of the prostate weight/volume and organ coefficient (average weight of prostate/average of body weight) were calculated, and statistical analysis performed (t test).
Prostate tissues of animals from different groups were embedded with paraffin. The tissue sections were stained with H&E for histpathological examination by an anatomical pathologist.

S=C=NCCc1ccccc1 [PEITC, phenethyl isothiocyanate]
Average of Body Weight (PEITC 1 mg/kg gavage (Example 13-11)): 377 ± 39.1 g
Average Volume of Prostate (PEITC 1 mg/kg gavage): 0.78 ± 0.16 cm^3
Average Weight of Prostate (PEITC 1 mg/kg gavage): 0.7 ± 0.15 g
Inhibition of Organ-coefficient (PEITC 1 mg/kg gavage): 28.46%
Organ Coefficient (PEITC 1 mg/kg gavage): 0.186 ± 0.03 %
Bleeding: no. of animals with score 0 (PEITC 1 mg/kg, 9 animals): 7
Bleeding: no. of animals with score + (PEITC 1 mg/kg, 9 animals): 2
Bleeding: no. of animals with score ++ (PEITC 1 mg/kg, 9 animals): 0
Bleeding: no. of animals with score +++ (PEITC 1 mg/kg, 9 animals): 0
Chronic Inflammatory Infiltration: no. of animals with score 0 (PEITC 1 mg/kg, 9 animals): 9
Chronic Inflammatory Infiltration: no. of animals with score + (PEITC 1 mg/kg, 9 animals): 0
Chronic Inflammatory Infiltration: no. of animals with score ++ (PEITC 1 mg/kg, 9 animals): 0
Chronic Inflammatory Infiltration: no. of animals with score +++ (PEITC 1 mg/kg, 9 animals): 0
Congestion: no. of animals with score 0 (PEITC 1 mg/kg, 9 animals): 3
Congestion: no. of animals with score + (PEITC 1 mg/kg, 9 animals): 6
Congestion: no. of animals with score ++ (PEITC 1 mg/kg, 9 animals): 0
Congestion: no. of animals with score +++ (PEITC 1 mg/kg, 9 animals): 0
Edema: no. of animals with score 0 (PEITC 1 mg/kg, 9 animals): 3
Edema: no. of animals with score + (PEITC 1 mg/kg, 9 animals): 6
Edema: no. of animals with score ++ (PEITC 1 mg/kg, 9 animals): 0
Edema: no. of animals with score +++ (PEITC 1 mg/kg, 9 animals): 0
Fibrous Exudation: no. of animals with score 0 (PEITC 1 mg/kg, 9 animals): 5
Fibrous Exudation: no. of animals with score + (PEITC 1 mg/kg, 9 animals): 4
Fibrous Exudation: no. of animals with score ++ (PEITC 1 mg/kg, 9 animals): 0
Fibrous Exudation: no. of animals with score +++ (PEITC 1 mg/kg, 9 animals): 0
Histopathological score of prostatitis, Overall Average X ± SD (PEITC 1 mg/kg, 9 animals): 1.83 ± 1.06
Hyperblastosis: no. of animals with score 0 (PEITC 1 mg/kg, 9 animals): 7
Hyperblastosis: no. of animals with score + (PEITC 1 mg/kg, 9 animals): 2
Hyperblastosis: no. of animals with score ++ (PEITC 1 mg/kg, 9 animals): 0
Hyperblastosis: no. of animals with score +++ (PEITC 1 mg/kg, 9 animals): 0
Inflammatory Infiltration: no. of animals with score 0 (PEITC 1 mg/kg, 9 animals): 9
Inflammatory Infiltration: no. of animals with score + (PEITC 1 mg/kg, 9 animals): 0
Inflammatory Infiltration: no. of animals with score ++ (PEITC 1 mg/kg, 9 animals): 0
Inflammatory Infiltration: no. of animals with score +++ (PEITC 1 mg/kg, 9 animals): 0
congestion, edema, fibroid and leukocyte infiltration versus untreated prostatitis animals (slide) (PEITC 1 mg/kg, FIG. 7.5): less severe
urine, 1 h Period (PEITC 1 mg/kg, last dosing day): 5.5 ± 1.0 mL
urine, 2 h Period (PEITC 1 mg/kg, last dosing day): 7.0 ± 0.7 mL
urine, 3 h Period (PEITC 1 mg/kg, last dosing day): 7.9 ± 1.0 mL
Average of Body Weight (PEITC 2 mg/kg gavage (Example 13-11)): 360 ± 24.8 g
Average Volume of Prostate (PEITC 2 mg/kg gavage): 0.82 ± 0.13 cm^3
Average Weight of Prostate (PEITC 2 mg/kg gavage): 0.70 ± 0.12 g
Inhibition of Organ-coefficient (PEITC 2 mg/kg gavage): 27.69%
Organ Coefficient (PEITC 2 mg/kg gavage): 0.188 ± 0.03 %
Bleeding: no. of animals with score 0 (PEITC 2 mg/kg, 9 animals): 8
Bleeding: no. of animals with score + (PEITC 2 mg/kg, 9 animals): 1
Bleeding: no. of animals with score ++ (PEITC 2 mg/kg, 9 animals): 0
Bleeding: no. of animals with score +++ (PEITC 2 mg/kg, 9 animals): 0
Chronic Inflammatory Infiltration: no. of animals with score 0 (PEITC 2 mg/kg, 9 animals): 8
Chronic Inflammatory Infiltration: no. of animals with score + (PEITC 2 mg/kg, 9 animals): 0
Chronic Inflammatory Infiltration: no. of animals with score ++ (PEITC 2 mg/kg, 9 animals): 1
Chronic Inflammatory Infiltration: no. of animals with score +++ (PEITC 2 mg/kg, 9 animals): 0
Congestion: no. of animals with score 0 (PEITC 2 mg/kg, 9 animals): 4
Congestion: no. of animals with score + (PEITC 2 mg/kg, 9 animals): 5
Congestion: no. of animals with score ++ (PEITC 2 mg/kg, 9 animals): 0
Congestion: no. of animals with score +++ (PEITC 2 mg/kg, 9 animals): 0
Edema: no. of animals with score 0 (PEITC 2 mg/kg, 9 animals): 6
Edema: no. of animals with score + (PEITC 2 mg/kg, 9 animals): 3
Edema: no. of animals with score ++ (PEITC 2 mg/kg, 9 animals): 0
Edema: no. of animals with score +++ (PEITC 2 mg/kg, 9 animals): 0

From patent US8410170B2, “Use of isothiocyanates compounds in treating prostatic diseases and skin cancer” (Wuxi JC Pharmaceutical Technology Co., Ltd., priority 2005, dated 2013)
